Assays:
CBP = CBP (Homo sapiens (Human), UniProt Q92793); assay: CBP TR-FRET binding assay; conditions: His/Flag tagged CBP 4 nM, biotin-ligand 60 nM; read-out: CBP HTRF IC50;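 also: displacement of a biotinylated small-molecule ligand from purified recombinant CBP read by TR-FRET, DMSO-only wells as control, IC50 from nonlinear curve fit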
Procedure: IC50 Measurements for Inhibitors Using CBP TR FRET Binding Assay
His/Flag epitope tagged CBP was cloned, expressed, and purified to homogeneity. CBP binding and inhibition was assessed by monitoring the engagement of a biotinylated small molecule compound with the target using the TR-FRET assay technology (Perkin-Elmer). Specifically, in a 384 well ProxiPlate CBP (4 nM final) was combined with biotin-ligand (60 nM final) in 50 mM HEPES (pH 7.5), 50 mM NaCl, 1 mM TCEP, 0.01% (w/v) BSA, and 0.008% (w/v) Brij-35 either in the presence of DMSO (final 0.2% DMSO) or compound dilution series in DMSO. […] After twenty minutes of equilibration, the plates were read on an Envision instrument and IC50S calculated using a four parameter non-linear curve fit.

MYC = MYC RPL19 QuantiGene assay in MV-4-11 cells; format: cell-based; conditions: Homo sapiens, MV4-11, compound 4 hours
From the text: MYC RPL19 QuantiGene assay in MV-4-11 Cells

CBP, sequence (Q92793 whole entry): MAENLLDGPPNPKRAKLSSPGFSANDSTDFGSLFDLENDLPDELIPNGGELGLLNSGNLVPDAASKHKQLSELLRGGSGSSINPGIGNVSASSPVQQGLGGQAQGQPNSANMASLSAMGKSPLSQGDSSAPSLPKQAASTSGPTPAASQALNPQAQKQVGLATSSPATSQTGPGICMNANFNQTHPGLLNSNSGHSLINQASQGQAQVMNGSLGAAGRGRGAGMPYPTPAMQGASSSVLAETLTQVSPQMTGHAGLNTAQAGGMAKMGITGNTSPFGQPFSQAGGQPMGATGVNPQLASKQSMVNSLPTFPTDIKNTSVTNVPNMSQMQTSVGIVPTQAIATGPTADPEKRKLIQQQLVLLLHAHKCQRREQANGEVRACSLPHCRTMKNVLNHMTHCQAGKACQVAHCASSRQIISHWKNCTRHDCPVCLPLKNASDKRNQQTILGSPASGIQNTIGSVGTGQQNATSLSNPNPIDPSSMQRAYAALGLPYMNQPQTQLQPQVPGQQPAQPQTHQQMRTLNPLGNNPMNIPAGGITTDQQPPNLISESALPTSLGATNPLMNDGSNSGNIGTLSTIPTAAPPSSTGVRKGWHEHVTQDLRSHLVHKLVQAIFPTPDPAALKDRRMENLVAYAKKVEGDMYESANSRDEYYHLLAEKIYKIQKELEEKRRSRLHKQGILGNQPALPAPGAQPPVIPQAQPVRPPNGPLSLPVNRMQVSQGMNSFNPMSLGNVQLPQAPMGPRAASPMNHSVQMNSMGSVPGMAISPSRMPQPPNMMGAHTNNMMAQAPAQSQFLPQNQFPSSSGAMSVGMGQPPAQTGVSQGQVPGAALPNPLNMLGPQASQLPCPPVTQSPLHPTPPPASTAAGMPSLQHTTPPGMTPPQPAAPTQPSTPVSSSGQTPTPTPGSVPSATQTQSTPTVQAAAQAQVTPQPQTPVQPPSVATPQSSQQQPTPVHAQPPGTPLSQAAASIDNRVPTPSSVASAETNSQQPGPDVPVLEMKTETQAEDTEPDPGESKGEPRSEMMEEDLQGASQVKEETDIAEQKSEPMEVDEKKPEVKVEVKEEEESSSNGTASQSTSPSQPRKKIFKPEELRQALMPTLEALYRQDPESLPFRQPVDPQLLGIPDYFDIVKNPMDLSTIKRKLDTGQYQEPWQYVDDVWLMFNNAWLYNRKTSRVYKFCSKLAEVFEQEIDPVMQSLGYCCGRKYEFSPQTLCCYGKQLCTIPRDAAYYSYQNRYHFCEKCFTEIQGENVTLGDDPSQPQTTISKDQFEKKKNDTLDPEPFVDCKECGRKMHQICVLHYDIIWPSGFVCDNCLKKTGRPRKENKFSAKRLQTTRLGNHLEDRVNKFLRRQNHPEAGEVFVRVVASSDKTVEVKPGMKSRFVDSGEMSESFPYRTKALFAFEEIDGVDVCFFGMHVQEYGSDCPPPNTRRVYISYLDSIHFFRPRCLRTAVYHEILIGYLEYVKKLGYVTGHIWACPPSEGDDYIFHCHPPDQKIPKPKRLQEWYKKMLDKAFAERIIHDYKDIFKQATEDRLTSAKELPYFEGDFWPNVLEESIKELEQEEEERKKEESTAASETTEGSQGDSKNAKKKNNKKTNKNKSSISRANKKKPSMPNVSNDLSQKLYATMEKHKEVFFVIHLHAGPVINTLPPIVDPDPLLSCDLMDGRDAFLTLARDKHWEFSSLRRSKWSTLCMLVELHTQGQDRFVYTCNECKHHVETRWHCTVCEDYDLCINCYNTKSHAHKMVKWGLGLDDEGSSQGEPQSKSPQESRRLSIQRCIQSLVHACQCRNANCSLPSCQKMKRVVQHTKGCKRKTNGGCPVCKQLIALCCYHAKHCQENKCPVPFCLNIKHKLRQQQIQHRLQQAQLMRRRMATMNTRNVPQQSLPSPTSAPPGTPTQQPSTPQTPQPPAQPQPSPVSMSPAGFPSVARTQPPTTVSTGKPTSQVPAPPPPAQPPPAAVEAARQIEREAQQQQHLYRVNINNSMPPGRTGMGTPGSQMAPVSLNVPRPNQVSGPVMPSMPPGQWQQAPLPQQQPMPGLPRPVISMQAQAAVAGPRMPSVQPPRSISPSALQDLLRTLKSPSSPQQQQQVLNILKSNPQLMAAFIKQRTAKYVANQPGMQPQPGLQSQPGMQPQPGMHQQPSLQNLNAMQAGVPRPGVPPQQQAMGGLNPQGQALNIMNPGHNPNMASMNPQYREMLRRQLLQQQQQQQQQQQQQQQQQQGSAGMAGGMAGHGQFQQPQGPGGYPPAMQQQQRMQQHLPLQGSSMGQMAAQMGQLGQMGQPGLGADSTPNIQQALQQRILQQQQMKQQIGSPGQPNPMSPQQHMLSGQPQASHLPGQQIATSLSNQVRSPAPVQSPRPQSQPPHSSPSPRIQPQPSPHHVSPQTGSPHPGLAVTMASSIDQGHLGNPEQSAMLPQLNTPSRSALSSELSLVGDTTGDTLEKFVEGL

| SMILES | IC50 (CBP) | IC50 (MYC) |
| --- | --- | --- |
| CNC(=O)c1cn(C)c2c(Cl)cc(N3CCCc4cc(-c5cnn(C)c5)c(C(F)F)cc43)cc12 [Example 54, 7-chloro-5-(7-(difluoromethyl)-6-(1-methyl-1H-pyrazol-4-yl)-3,4-dihydroquinolin-1(2H)-yl)-N,1-dimethyl-1H-indole-3-carboxamide] | 59 nM | 2290 nM |
| CNC(=O)c1cn(C)c2ccc(N3CCCc4cc(-c5cnn(C)c5)c(C(F)F)cc43)c(F)c12 [Example 55] | 4 nM | 115 nM |
| CNC(=O)c1cn(C)c2cc(F)c(N3CCCc4cc(-c5cnn(C)c5)c(C(F)F)cc43)cc12 [Example 56] | 10 nM | 4040 nM |
| CNC(=O)c1c[nH]c2ccc(N3CCCc4cc(-c5cnn(C)c5)c(C(F)F)cc43)nc12 [Example 65] | 5 nM | 150 nM |
| CNC(=O)c1c[nH]c2ncc(N3CCCc4cc(-c5cnn(C)c5)c(C(F)F)cc43)cc12 [Example 68] | 15 nM | 4380 nM |
| CNC(=O)c1c[nH]c2ncc(N3CCCc4cc(-c5cnn(C)c5)c(C(F)F)cc43)nc12 [Example 69] | 4 nM | 47 nM |
| CCC(=O)N1CCOc2ccc(N3CCCc4cc(-c5cnn(C)c5)c(C(F)F)cc43)cc2C1 [Example 78, 1-(7-(7-(difluoromethyl)-6-(1-methyl-1H-pyrazol-4-yl)-3,4-dihydroquinolin-1(2H)-yl)-2,3-dihydrobenzo[f][1,4]oxazepin-4(5H)-yl)propan-1-one] | 22 nM | 780 nM |
| CN1C(=O)Cc2ccc(N3CCCc4cc(-c5cnn(C)c5)c(C(F)F)cc43)cc21 [Example 90, 6-[7-(difluoromethyl)-6-(1-methylpyrazol-4-yl)-3,4-dihydro-2H-quinolin-1-yl]-1-methyl-indolin-2-one] | 32 nM | 96 nM |
| CC(C)c1cc(N2CCCc3cc(-c4cnn(C)c4)c(C(F)F)cc32)cc2c1n(C)c(=O)n2C [Example 96, 6-(7-(difluoromethyl)-6-(1-methyl-1H-pyrazol-4-yl)-3,4-dihydroquinolin-1(2H)-yl)-4-isopropyl-1,3-dimethyl-1H-benzo[d]imidazol-2(3H)-one] | 9 nM | 220 nM |
| CNC(=O)c1cn(C)c2c(C3CCOCC3)cc(N3CCCc4cc(-c5cnn(C)c5)c(C(F)F)cc43)cc12 [Example 105, 5-(7-(difluoromethyl)-6-(1-methyl-1H-pyrazol-4-yl)-3,4-dihydroquinolin-1(2H)-yl)-N,1-dimethyl-7-(tetrahydro-2H-pyran-4-yl)-1H-indole-3-carboxamide] | 11 nM | 86 nM |
| CNC(=O)c1cn(C)c2c(C(C)C)cc(N3CCCc4cc(-c5cnn(C)c5)c(C(F)F)cc43)cc12 [Example 108, 5-(7-(difluoromethyl)-6-(1-methyl-1H-pyrazol-4-yl)-3,4-dihydroquinolin-1(2H)-yl)-7-isopropyl-N,1-dimethyl-1H-indole-3-carboxamide] | 31 nM | 235 nM |
| CNC(=O)N1CCOc2ccc(N3CCCc4cc(-c5cnn(C)c5)c(C(F)F)cc43)cc2C1 [Example 113, 7-(7-(difluoromethyl)-6-(1-methyl-1H-pyrazol-4-yl)-3,4-dihydroquinolin-1(2H)-yl)-N-methyl-2,3-dihydrobenzo[f][1,4]oxazepine-4(5H)-carboxamide] | 14 nM | 157 nM |
| CNC(=O)c1ccc2cccc(N3CCCc4cc(-c5cnn(C)c5)c(C(F)F)cc43)c2n1 [Example 120, 7-(difluoromethyl)-N-methyl-6-(1-methyl-1H-pyrazol-4-yl)-3,4-dihydro-2H-[1,8′-biquinoline]-2′-carboxamide] | 6 nM | 632 nM |
| CNC(=O)Nc1cc(OC)cc(N2CCCc3cc(-c4cnn(C)c4)c(C(F)F)cc32)n1 [Example 123, 1-(6-(7-(difluoromethyl)-6-(1-methyl-1H-pyrazol-4-yl)-3,4-dihydroquinolin-1(2H)-yl)-4-methoxypyridin-2-yl)-3-methylurea] | 115 nM | 3380 nM |

Second part, the compound after the results:

| IC50 (CBP) | IC50 (MYC) | SMILES |
| --- | --- | --- |
| 9 nM | 496 nM | CNC(=O)c1cn(C)c2ccc(N3CCCc4cc(-c5cnn(C)c5)c(C(F)F)cc43)cc12 [Example 50, 5-(7-(difluoromethyl)-6-(1-methyl-1H-pyrazol-4-yl)-3,4-dihydroquinolin-1(2H)-yl)-N,1-dimethyl-1H-indole-3-carboxamide] |
| 9 nM | 2180 nM | CNC(=O)c1c[nH]c2ccc(N3CCCc4cc(-c5cnn(C)c5)c(C(F)F)cc43)cc12 [Example 52, 5-(7-(difluoromethyl)-6-(1-methyl-1H-pyrazol-4-yl)-3,4-dihydroquinolin-1(2H)-yl)-N-methyl-1H-indole-3-carboxamide] |
| 9 nM | 302 nM | CNC(=O)c1cn(C)c2cc(C)c(N3CCCc4cc(-c5cnn(C)c5)c(C(F)F)cc43)cc12 [Example 57] |
| 9 nM | 181 nM | CNC(=O)c1cn(C)c2ccc(N3CCCc4cc(-c5cnn(C)c5)c(C(F)F)cc43)nc12 [Example 58] |
| 6 nM | 205 nM | CNC(=O)c1cn(C)c2cnc(N3CCCc4cc(-c5cnn(C)c5)c(C(F)F)cc43)cc12 [Example 59] |
| 9 nM | 108 nM | CNC(=O)c1cn(C)c2c(C)cc(N3CCCc4cc(-c5cnn(C)c5)c(C(F)F)cc43)nc12 [Example 60] |
| 12 nM | 84 nM | CNC(=O)c1c[nH]c2c(C(C)C)cc(N3CCCc4cc(-c5cnn(C)c5)c(C(F)F)cc43)cc12 [Example 62, 5-(7-(difluoromethyl)-6-(1-methyl-1H-pyrazol-4-yl)-3,4-dihydroquinolin-1(2H)-yl)-7-isopropyl-N-methyl-1H-indole-3-carboxamide] |
| 2 nM | 53 nM | CNC(=O)c1c[nH]c2c(C(C)C)nc(N3CCCc4cc(-c5cnn(C)c5)c(C(F)F)cc43)cc12 [Example 63] |
| 2 nM | 143 nM | CNC(=O)c1c[nH]c2c(C)nc(N3CCCc4cc(-c5cnn(C)c5)c(C(F)F)cc43)cc12 [Example 64, 5-(7-(difluoromethyl)-6-(1-methyl-1H-pyrazol-4-yl)-3,4-dihydroquinolin-1(2H)-yl)-N,7-dimethyl-1H-pyrrolo[2,3-c]pyridine-3-carboxamide] |
| 4 nM | 46 nM | CNC(=O)c1c[nH]c2c(C)cc(N3CCCc4cc(-c5cnn(C)c5)c(C(F)F)cc43)nc12 [Example 66] |
| 5 nM | 358 nM | CNC(=O)c1c[nH]c2cnc(N3CCCc4cc(-c5cnn(C)c5)c(C(F)F)cc43)cc12 [Example 67] |
| 9 nM | 177 nM | CNC(=O)c1ccc2c(c1)c(N1CCCc3cc(-c4cnn(C)c4)c(C(F)F)cc31)nn2C1CCOCC1 [Example 83, 3-(7-(difluoromethyl)-6-(1-methyl-1H-pyrazol-4-yl)-3,4-dihydroquinolin-1(2H)-yl)-N-methyl-1-(tetrahydro-2H-pyran-4-yl)-1H-indazole-5-carboxamide] |
| 4 nM | 58 nM | Cn1cc(-c2cc3c(cc2C(F)F)N(c2cc(C4CCOCC4)c4c(c2)n(C)c(=O)n4C)CCC3)cn1 [Example 97, 6-(7-(difluoromethyl)-6-(1-methyl-1H-pyrazol-4-yl)-3,4-dihydroquinolin-1(2H)-yl)-1,3-dimethyl-4-(tetrahydro-2H-pyran-4-yl)-1H-benzo[d]imidazol-2(3H)-one] |
| 4 nM | 86 nM | Cn1cc(-c2cc3c(cc2C(F)F)N(c2cc(C4=CC[S+]([O-])CC4)c4c(c2)n(C)c(=O)n4C)CCC3)cn1 (stereo not shown) [Example 98, 6-(7-(difluoromethyl)-6-(1-methyl-1H-pyrazol-4-yl)-3,4-dihydroquinolin-1(2H)-yl)-1,3-dimethyl-4-(1-oxido-3,6-dihydro-2H-thiopyran-4-yl)-1H-benzo[d]imidazol-2(3H)-one] |
| 10 nM | 164 nM | COc1cc(N2CCCc3cc(-c4cnn(C)c4)c(C(F)F)cc32)cc2c1n(C)c(=O)n2C [Example 100, 6-(7-(difluoromethyl)-6-(1-methyl-1H-pyrazol-4-yl)-3,4-dihydroquinolin-1(2H)-yl)-4-methoxy-1,3-dimethyl-1H-benzo[d]imidazol-2(3H)-one] |
| 16 nM | 377 nM | CNC(=O)c1cn(C)c2c(C)cc(N3CCCc4cc(-c5cnn(C)c5)c(C(F)F)cc43)cc12 [Example 104, 5-(7-(difluoromethyl)-6-(1-methyl-1H-pyrazol-4-yl)-3,4-dihydroquinolin-1(2H)-yl)-N,1,7-trimethyl-1H-indole-3-carboxamide] |
| 16 nM | 147 nM | C=C(C)c1cc(N2CCCc3cc(-c4cnn(C)c4)c(C(F)F)cc32)cc2c(C(=O)NC)cn(C)c12 [Example 107, 5-(7-(difluoromethyl)-6-(1-methyl-1H-pyrazol-4-yl)-3,4-dihydroquinolin-1(2H)-yl)-N,1-dimethyl-7-(prop-1-en-2-yl)-1H-indole-3-carboxamide] |
| 32 nM | 2100 nM | CC(=O)N1CCOc2ccc(N3CCCc4cc(-c5cnn(C)c5)c(C(F)F)cc43)cc2C1 [Example 112, 1-(7-(7-(difluoromethyl)-6-(1-methyl-1H-pyrazol-4-yl)-3,4-dihydroquinolin-1(2H)-yl)-2,3-dihydrobenzo[f][1,4]oxazepin-4(5H)-yl)ethanone] |

Reference: patent US10696655B2, “Therapeutic compounds and uses thereof” (GENENTECH, INC., priority 2017, dated 2020)
